{
  "source": "paper PMC6681004",
  "about": "“Asymmetric Whole-Cell Bio-Reductions of (R)-Carvone Using Optimized Ene Reductases” (Molecules, 2019)",
  "target": "T1, NostocER1 (Nostoc sp. PCC 7120 = FACHB-418, UniProt A0ACD6B956)",
  "T1 construct": "gene all1865; full-length gene, pET28a(+) based vector (NcoI/BamHI), co-expressed with M. vaccae FDH in E. coli BL21(DE3)",
  "T1 sequence (A0ACD6B956 38-402)": "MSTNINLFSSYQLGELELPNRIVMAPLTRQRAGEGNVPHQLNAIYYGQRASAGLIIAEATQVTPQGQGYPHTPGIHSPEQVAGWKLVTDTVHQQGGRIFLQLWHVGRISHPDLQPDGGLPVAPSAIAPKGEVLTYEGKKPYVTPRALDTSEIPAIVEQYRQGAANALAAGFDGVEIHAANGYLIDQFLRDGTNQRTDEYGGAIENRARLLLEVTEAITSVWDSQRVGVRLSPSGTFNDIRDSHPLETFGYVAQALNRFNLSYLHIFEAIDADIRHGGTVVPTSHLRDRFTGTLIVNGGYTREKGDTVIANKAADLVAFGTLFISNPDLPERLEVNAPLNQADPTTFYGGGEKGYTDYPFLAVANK",
  "test": "whole-cell biotransformation, chiral GC-FID",
  "type": "cell-based",
  "conditions": "E. coli BL21(DE3) whole cells with FDH; 300 mM (R)-carvone, 450 mM formate, 0.1 mM NAD+, XAD4 resin, pH 7.0, 25 °C; product (2R,5R)-dihydrocarvone",
  "data": [
    {"smiles": "C=C(C)[C@@H]1CC=C(C)C(=O)C1", "note": "[compound 1, (R)-carvone]", "values": [
      {"measurement": "whole-cell biotransformation, chiral GC-FID", "result": "E. coli cells with the NostocER1 wild type possessed the slowest of all determined product formation rates"}
    ]}
  ]
}
